The text below walks through data of US20240132457A1, “3-(2-(BENZO[D]THIAZOL-2-YL)-2-(PHENYLSUFONAMIDO)ETHYL)BENZIMIDAMIDE DERIVATIVES AND RELATED COMPOUNDS AS TMPRSS2 INHIBITORS FOR THE TREATMENT OF VIRAL INFECTIONS” (INTEGERBIO, INC., priority 2020, published 2024).

pIC50: −log10 of the molar value.

What all share (assay type): biochemical
One experiment addresses Furin (Homo sapiens, UniProt P09958). Description: Non-TMPRSS2 protease panel: Furin. To be noted: 10-dose, 3-fold from 10 μM. On the procedure:
(§1) Biochemical activity of compound 1 (racemic mixture, batch 1), compound 3 (racemic), compound 11, and compound 2 (enantiomer 1, batch 1) in proteases indicated in Table 21, Table 22, Table 23, and Table 24, respectively, were measured by testing the compounds in a 10-dose IC50 with a 3-fold series dilution starting at 10 μM against the proteases. The protease activities were monitored as a time-course measurement of the increase in fluorescence signal from fluorescently-labeled peptide substrate, and initial linear portion of slope (signal/min) was analyzed. The curve fits were performed when the activities at the highest concentration of compounds were less than 65%.

Another experiment has as its target ACE2 (Homo sapiens, UniProt Q9BYF1). Description: Non-TMPRSS2 protease panel: ACE2. To be noted: 10-dose, 3-fold from 10 μM. On the procedure: as §1
The next experiment has as its target MMP 13 (Homo sapiens, UniProt P45452). Kind of experiment: Non-TMPRSS2 protease panel: MMP 13. To be noted: 10-dose, 3-fold from 10 μM. Here is the method:
as §1

A further experiment concerns the target MMP 14 (Homo sapiens, UniProt P50281). Description: Non-TMPRSS2 protease panel: MMP 14. To be noted: 10-dose, 3-fold from 10 μM. Here is the method: as §1
Another experiment addresses T1, Kallikrein 5 (Homo sapiens, UniProt Q9Y337).
T1 sequence (Q9Y337 23-293): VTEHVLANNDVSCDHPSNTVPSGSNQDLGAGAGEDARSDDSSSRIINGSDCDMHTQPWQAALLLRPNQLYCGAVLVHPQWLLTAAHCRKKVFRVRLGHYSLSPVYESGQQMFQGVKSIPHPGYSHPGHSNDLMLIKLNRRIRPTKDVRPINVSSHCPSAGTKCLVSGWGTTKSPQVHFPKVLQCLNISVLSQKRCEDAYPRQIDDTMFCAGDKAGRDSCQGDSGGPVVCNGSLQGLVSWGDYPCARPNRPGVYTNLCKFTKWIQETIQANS
Kind of experiment: Non-TMPRSS2 protease panel: Kallikrein 5. To be noted: 10-dose, 3-fold from 10 μM. Here is the method:
as §1

Another experiment has as its target MMP 10 (Homo sapiens, UniProt P09238). Description: Non-TMPRSS2 protease panel: MMP 10. To be noted: 3-fold from 10 μM. Here is the method: as §1
Experiment [1] deals with T2, Recombinant human TMPRSS2 protein (106-492 aa) (Homo sapiens, UniProt O15393).
T2 construct: Human TMPRSS2-(AA 106-492)-; purchased CusaBio CSB-YP023924HU; host or cells: yeast
Kind of experiment: TMPRSS2 Assay 1 (Example 41), fluorogenic Boc-Gln-Ala-Arg-AMC cleavage. To be noted: TMPRSS2 10 nM, substrate 25 μM, 20 min pre-incubation. Here is the method:
The enzyme (TMPRSS2, CusaBio cat #CSB-YP023924HU. Recombinant human TMPRSS2 protein (106-492 aa)N-terminal 6×His-tagged (“6×His” disclosed as SEQ ID NO: 4), expressed in yeast cells; MW=44.8 kDa, lyophilized from 20 mM: Tris HCl, 0.5 M NaCl, 6% Trehalose, pH 8.0, >85% purity as determined by SDS-PAGE. Uniprot: 015393; 10 nM in the reaction) and substrate (Boc-Gln-Ala-Arg-AMC; Enzo Cat #BML-P237-0005, MW=581.76 Da. 25 μM in the reaction) were prepared in Reaction Buffer (50 mM Tris-HCl pH 8, 150 mM NaCl, 0.005% Brij35, 1% DMSO). After the enzyme solution was delivered into the reaction well, the compounds in DMSO were delivered to the reaction mixture by using Acoustic Technology (Echo 550, LabCyte Inc. Sunnyvale, CA) in nanoliter range. After 20 min pre-incubation, the substrate solution was delivered into the reaction well to initiate the reaction. The enzyme activities were monitored every 5 min as a time-course measurement of the increase in fluorescence signal from fluorescently-labeled peptide substrate for 120 min. at room temperature. Data was analyzed by taking slope*(signal/time) of linear portion of measurement. The slope was calculated using Excel, and the curve fits were performed using Prism software.

The target of experiment [2] is T3, Human TMPRSS2-(AA 106-492) (Homo sapiens, UniProt O15393).
T3 construct: Human TMPRSS2-(AA 106-492)-; purchased CusaBio CSB-YP023924HU; host or cells: yeast
Kind of experiment: TMPRSS2 Assay 2 (Example 42), 384-well primary assay. The following applies: TMPRSS2 20 nM, substrate 40 μM, 150 min at room temperature. On the procedure:
The concentration-response testing of compounds was in primary, readout counter as 11-point compound dilution series in 384-well assay plate format in triplicates (n=3). The compound dilutions was prepared in an intermediate plate (spot volume=150 nL), and then the assay reagents were prepared. After preparing the intermediate plates containing the assay reagents for the transfer into the assay plate using the Selma 384/25 μl pipettor, the assay reagents were transferred into the assay plate.
The resulting plate was centrifuged at g=290 for 30 s, and then the plate was incubated at room temperature for 150 minutes. 10 μl 2.5× of stop reagent (50 mM acetic acid) (Selma) was added, and then the plate was read on Safire e.
The materials, reagents, and equipment used for the assay is described in Table 3, Table 4, Table 5, and Table 6.
For the primary assay, the assay buffer (50 mM Tris-HCL, 150 mM NaCl, 0.01% Tween®20, pH8.0) was prepared using the stocks as described in Table 7.
The enzyme dilution was prepared as described in Table 8.
The final assay concentration was referred to 15 μl assay volume. Using a “greiner-dilution” as intermediate plate, the according wells were filled ([…]). The volume was adjusted using another plate type. Substrate dilution was prepared as described in Table 9.
The final assay concentration was referred to 15 μl assay volume. The DMSO concentration of the substrate working dilution was 1.2%. Using a “greiner-dilution” as intermediate plate, the according wells were filled (23 μl). Using another plate type, the volume was adjusted.
The compounds were dissolved in DM50. 150 nl of the compound were transferred into the assay plate prior to addition of the assay components (final assay volume of 15 μl).
The final concentration of the tool compound (low control) in the assay (assay volume l) was 0.8 μM. For the High control 5 μl/well […] was filled in column 6. The readout settings are described in Table 14. The readout was performed utilizing Safire^2 Microplate Reader. […]

Sequence of MMP 10 (P09238 99-476): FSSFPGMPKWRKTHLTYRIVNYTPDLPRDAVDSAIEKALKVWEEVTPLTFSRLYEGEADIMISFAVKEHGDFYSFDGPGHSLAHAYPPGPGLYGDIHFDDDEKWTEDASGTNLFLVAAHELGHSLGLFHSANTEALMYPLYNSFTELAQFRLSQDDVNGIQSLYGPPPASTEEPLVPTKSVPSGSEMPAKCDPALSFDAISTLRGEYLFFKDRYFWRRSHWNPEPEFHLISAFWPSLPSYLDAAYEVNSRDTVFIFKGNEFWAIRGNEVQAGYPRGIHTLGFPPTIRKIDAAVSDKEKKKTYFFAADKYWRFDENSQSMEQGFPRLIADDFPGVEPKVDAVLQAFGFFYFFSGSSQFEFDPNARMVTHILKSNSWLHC
Sequence of ACE2 (Q9BYF1 18-805): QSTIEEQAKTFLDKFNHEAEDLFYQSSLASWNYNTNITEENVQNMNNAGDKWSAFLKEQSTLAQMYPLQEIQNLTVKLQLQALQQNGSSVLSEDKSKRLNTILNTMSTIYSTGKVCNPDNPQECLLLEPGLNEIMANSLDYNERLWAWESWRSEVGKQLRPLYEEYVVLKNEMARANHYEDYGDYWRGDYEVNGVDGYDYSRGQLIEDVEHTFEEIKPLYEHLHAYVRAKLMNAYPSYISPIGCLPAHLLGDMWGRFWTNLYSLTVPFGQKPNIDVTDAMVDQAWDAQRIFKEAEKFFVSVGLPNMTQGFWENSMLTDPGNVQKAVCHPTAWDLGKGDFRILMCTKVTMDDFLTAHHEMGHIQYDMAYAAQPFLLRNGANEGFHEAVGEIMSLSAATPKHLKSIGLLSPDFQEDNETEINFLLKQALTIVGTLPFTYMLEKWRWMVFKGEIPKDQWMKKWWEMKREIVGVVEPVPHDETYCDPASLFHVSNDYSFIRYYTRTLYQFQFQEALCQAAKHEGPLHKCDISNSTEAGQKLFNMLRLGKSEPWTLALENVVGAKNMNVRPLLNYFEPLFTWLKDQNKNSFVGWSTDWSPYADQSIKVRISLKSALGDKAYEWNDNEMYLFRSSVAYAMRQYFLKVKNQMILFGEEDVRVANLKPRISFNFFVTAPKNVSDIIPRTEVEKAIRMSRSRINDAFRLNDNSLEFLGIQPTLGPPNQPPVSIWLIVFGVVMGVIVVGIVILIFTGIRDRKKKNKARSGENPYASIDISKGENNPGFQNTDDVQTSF
Sequence of Furin (P09958 108-794): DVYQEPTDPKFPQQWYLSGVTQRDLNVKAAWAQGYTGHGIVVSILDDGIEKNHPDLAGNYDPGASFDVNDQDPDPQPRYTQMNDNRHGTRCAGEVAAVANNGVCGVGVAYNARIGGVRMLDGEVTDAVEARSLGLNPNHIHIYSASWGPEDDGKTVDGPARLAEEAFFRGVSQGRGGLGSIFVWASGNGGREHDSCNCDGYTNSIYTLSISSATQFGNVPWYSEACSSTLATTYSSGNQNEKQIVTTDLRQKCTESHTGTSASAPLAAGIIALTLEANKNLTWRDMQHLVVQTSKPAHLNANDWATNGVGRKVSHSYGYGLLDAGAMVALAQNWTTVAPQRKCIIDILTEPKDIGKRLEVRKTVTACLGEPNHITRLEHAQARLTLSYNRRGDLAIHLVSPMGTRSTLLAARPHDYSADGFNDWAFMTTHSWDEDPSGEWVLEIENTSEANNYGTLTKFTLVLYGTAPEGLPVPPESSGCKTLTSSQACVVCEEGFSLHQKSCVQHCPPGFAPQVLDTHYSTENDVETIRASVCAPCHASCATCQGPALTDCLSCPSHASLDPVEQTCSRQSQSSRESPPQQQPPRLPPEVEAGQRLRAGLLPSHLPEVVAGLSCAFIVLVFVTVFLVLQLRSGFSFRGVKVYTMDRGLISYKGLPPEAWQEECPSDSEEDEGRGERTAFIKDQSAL
T3 sequence (O15393 106-492): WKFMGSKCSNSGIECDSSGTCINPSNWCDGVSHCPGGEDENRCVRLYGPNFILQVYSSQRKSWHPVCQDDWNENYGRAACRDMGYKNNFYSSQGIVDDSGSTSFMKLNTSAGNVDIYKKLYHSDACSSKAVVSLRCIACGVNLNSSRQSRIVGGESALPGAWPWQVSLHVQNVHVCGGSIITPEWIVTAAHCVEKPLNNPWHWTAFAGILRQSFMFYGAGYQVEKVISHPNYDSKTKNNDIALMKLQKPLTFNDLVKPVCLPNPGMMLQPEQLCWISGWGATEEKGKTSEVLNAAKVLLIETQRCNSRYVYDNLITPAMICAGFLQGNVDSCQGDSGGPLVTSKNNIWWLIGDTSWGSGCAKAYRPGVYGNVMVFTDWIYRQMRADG
T2 sequence (O15393 106-492): as above

The pIC50 is the IC50 on a negative log10 scale, so that one unit is a factor of ten. As to `N=C(N)c1cccc(C[C@H](NS(=O)(=O)c2ccccc2)c2nnco2)c1` (single isomer, unassigned) [Compound 2 (enantiomer 1, batch 1), 3-[2-Benzenesulfonamido-2-(1,3,4-oxadiazol-2-yl)ethyl]benzene-1-carboximidamide], the negative-log IC50 (pIC50) at Furin, against ACE2, against MMP 13, against MMP 14, against Kallikrein 5 and at MMP 10 was less than 5.00 each time. Further, the negative-log IC50 (pIC50) in experiment [1] is less than 5.00; in experiment [2] it was less than 4.52.
For `N=C(N)c1cccc(CC(NS(=O)(=O)c2ccccc2)c2nc3ccccc3s2)c1` (racemic) [1 (racemic mixture, batch 1), 3-[2-Benzenesulfonamido-2-(1,3-benzothiazol-2-yl)ethyl]benzene-1-carboximidamide], the negative-log IC50 (pIC50) against Furin, against ACE2, against MMP 13, against MMP 14, against Kallikrein 5 and against MMP 10 was less than 5.00 throughout. Besides, the pIC50 is greater than 5.00 in experiment [1] and greater than 4.52 in experiment [2].
Turning to `COc1ccc2nc(C(Cc3cccc(C(=N)N)c3)NS(=O)(=O)c3ccccc3)sc2c1` (stereo not drawn) [Compound 11, 3-[2-Benzenesulfonamido-2-(6-methoxy-1,3-benzothiazol-2-yl)ethyl]benzene-1-carboximidamide], the pIC50 at Furin, against ACE2, against MMP 13, on MMP 14, on Kallikrein 5 and on MMP 10 was less than 5.00 throughout.
Regarding `N=C(N)c1cccc(CC(NS(=O)(=O)c2cccc(-c3ccc(Cl)cc3Cl)c2)c2nc3ccccc3s2)c1` (racemic) [3 (racemic), 3-[2-(1,3-Benzothiazol-2-yl)-2-{2′,4′-dichloro-[1,1′-biphenyl]-3-sulfonamido}ethyl]benzene-1-carboximidamide], the negative-log IC50 (pIC50) against Furin is less than 5.00; against ACE2 it was less than 5.00; against MMP 13, less than 5.00; at MMP 14 it was greater than 5.00; against Kallikrein 5, less than 5.00; against MMP 10, less than 5.00. The pIC50 in experiment [1] is greater than 5.00; in experiment [2], less than 4.52.
